Source: paper PMC8162404, “Proteomimetic surface fragments distinguish targets by function” (Chemical Science, 2020)

Experiments:
[1] = target: T1, S100B (Homo sapiens, UniProt P04271); assay: Pull-down assay with immobilized protein and LSM libraries; type: binding; details: H12 library; 1:1 binding assumed; read-out: Surface mapping KD (apparent)
T1 construct: made in house; host or cells: Escherichia coli BL21(DE3)
T1 sequence (P04271 1-92): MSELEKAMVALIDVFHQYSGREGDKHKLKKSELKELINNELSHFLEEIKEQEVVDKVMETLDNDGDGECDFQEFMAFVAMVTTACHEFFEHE
How it was run: (§1)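 Buffers were HEPES pH 7.4 with 150 mM NaCl, plus 1 mM TCEP and 1 mM CaCl2 (50 mM HEPES) for S100A4 and S100B, 1 mM TCEP for Gal-1, and no additive for RecQ-WH. Immobilized protein at 64 µM was equilibrated 30 min with the LSM sublibrary, and unbound probes were measured by LC-MS.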

[2] = target: T2, Gal-1 (Homo sapiens, UniProt P09382); assay: as above; type: binding; details: H12 library; 1:1 binding assumed; read-out: Surface mapping KD (apparent)
T2 construct: made in house; host or cells: E. coli BL21(DE3)
How it was run: as §1

T2 sequence (P09382 whole entry): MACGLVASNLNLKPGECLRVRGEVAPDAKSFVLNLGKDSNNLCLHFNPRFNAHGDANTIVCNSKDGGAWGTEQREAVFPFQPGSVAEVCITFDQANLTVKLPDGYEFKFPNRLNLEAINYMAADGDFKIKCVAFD

| SMILES | Kd [1] | Kd [2] |
| --- | --- | --- |
| NC(=O)[C@H]1CCC[C@@H]1NC(=O)[C@H]1CCC[C@@H]1NC(=O)C[C@H](CCC(=O)O)NC(=O)[C@H]1CCC[C@@H]1NC(=O)[C@H]1CCC[C@@H]1NC(=O)C[C@H](Cc1ccccc1)NC(=O)[C@H]1CCC[C@@H]1NC(=O)[C@H]1CCC[C@@H]1N [H12 FE] | 391 µM | 198 µM |
| NC(=O)C[C@@H](CC(=O)N[C@H]1CCC[C@@H]1C(=O)N[C@H]1CCC[C@@H]1C(N)=O)NC(=O)[C@H]1CCC[C@@H]1NC(=O)[C@H]1CCC[C@@H]1NC(=O)C[C@H](Cc1ccccc1)NC(=O)[C@H]1CCC[C@@H]1NC(=O)[C@H]1CCC[C@@H]1N [H12 FN] | 109 µM | 226 µM |
| NC(=O)CC[C@@H](CC(=O)N[C@H]1CCC[C@@H]1C(=O)N[C@H]1CCC[C@@H]1C(N)=O)NC(=O)[C@H]1CCC[C@@H]1NC(=O)[C@H]1CCC[C@@H]1NC(=O)C[C@H](Cc1ccccc1)NC(=O)[C@H]1CCC[C@@H]1NC(=O)[C@H]1CCC[C@@H]1N [H12 FQ] | 104 µM | 208 µM |
| NC(=O)[C@H]1CCC[C@@H]1NC(=O)[C@H]1CCC[C@@H]1NC(=O)C[C@H](CO)NC(=O)[C@H]1CCC[C@@H]1NC(=O)[C@H]1CCC[C@@H]1NC(=O)C[C@H](Cc1ccccc1)NC(=O)[C@H]1CCC[C@@H]1NC(=O)[C@H]1CCC[C@@H]1N [H12 FS] | 310 µM | 268 µM |
| C[C@@H](O)[C@@H](CC(=O)N[C@H]1CCC[C@@H]1C(=O)N[C@H]1CCC[C@@H]1C(N)=O)NC(=O)[C@H]1CCC[C@@H]1NC(=O)[C@H]1CCC[C@@H]1NC(=O)C[C@H](Cc1ccccc1)NC(=O)[C@H]1CCC[C@@H]1NC(=O)[C@H]1CCC[C@@H]1N [H12 FT] | 86 µM | 254 µM |
| CC[C@H](C)[C@@H](CC(=O)N[C@H]1CCC[C@@H]1C(=O)N[C@H]1CCC[C@@H]1C(=O)N[C@@H](C)CC(=O)N[C@H]1CCC[C@@H]1C(=O)N[C@H]1CCC[C@@H]1C(N)=O)NC(=O)[C@H]1CCC[C@@H]1NC(=O)[C@H]1CCC[C@@H]1N [H12 IA] | 254 µM | 469 µM |
| CC[C@H](C)[C@@H](CC(=O)N[C@H]1CCC[C@@H]1C(=O)N[C@H]1CCC[C@@H]1C(=O)N[C@@H](CO)CC(=O)N[C@H]1CCC[C@@H]1C(=O)N[C@H]1CCC[C@@H]1C(N)=O)NC(=O)[C@H]1CCC[C@@H]1NC(=O)[C@H]1CCC[C@@H]1N [H12 IS] | 360 µM | 485 µM |
| NCCCC[C@@H](CC(=O)N[C@H]1CCC[C@@H]1C(=O)N[C@H]1CCC[C@@H]1C(=O)N[C@@H](CC(=O)O)CC(=O)N[C@H]1CCC[C@@H]1C(=O)N[C@H]1CCC[C@@H]1C(N)=O)NC(=O)[C@H]1CCC[C@@H]1NC(=O)[C@H]1CCC[C@@H]1N [H12 KD] | 149 µM | 289 µM |
| NCCCC[C@@H](CC(=O)N[C@H]1CCC[C@@H]1C(=O)N[C@H]1CCC[C@@H]1C(N)=O)NC(=O)[C@H]1CCC[C@@H]1NC(=O)[C@H]1CCC[C@@H]1NC(=O)C[C@H](CCCCN)NC(=O)[C@H]1CCC[C@@H]1NC(=O)[C@H]1CCC[C@@H]1N [H12 KK] | 177 µM | 230 µM |
| CSCC[C@@H](CC(=O)N[C@H]1CCC[C@@H]1C(=O)N[C@H]1CCC[C@@H]1C(N)=O)NC(=O)[C@H]1CCC[C@@H]1NC(=O)[C@H]1CCC[C@@H]1NC(=O)C[C@H](CCCCN)NC(=O)[C@H]1CCC[C@@H]1NC(=O)[C@H]1CCC[C@@H]1N [H12 KM] | 153 µM | 282 µM |
| NCCCC[C@@H](CC(=O)N[C@H]1CCC[C@@H]1C(=O)N[C@H]1CCC[C@@H]1C(=O)N[C@@H](CCC(N)=O)CC(=O)N[C@H]1CCC[C@@H]1C(=O)N[C@H]1CCC[C@@H]1C(N)=O)NC(=O)[C@H]1CCC[C@@H]1NC(=O)[C@H]1CCC[C@@H]1N [H12 KQ] | 300 µM | 293 µM |
| NCCCC[C@@H](CC(=O)N[C@H]1CCC[C@@H]1C(=O)N[C@H]1CCC[C@@H]1C(=O)N[C@@H](CO)CC(=O)N[C@H]1CCC[C@@H]1C(=O)N[C@H]1CCC[C@@H]1C(N)=O)NC(=O)[C@H]1CCC[C@@H]1NC(=O)[C@H]1CCC[C@@H]1N [H12 KS] | 224 µM | 298 µM |
| CC(C)[C@@H](CC(=O)N[C@H]1CCC[C@@H]1C(=O)N[C@H]1CCC[C@@H]1C(N)=O)NC(=O)[C@H]1CCC[C@@H]1NC(=O)[C@H]1CCC[C@@H]1NC(=O)C[C@H](CCCCN)NC(=O)[C@H]1CCC[C@@H]1NC(=O)[C@H]1CCC[C@@H]1N [H12 KV] | 193 µM | 221 µM |
| NCCCC[C@@H](CC(=O)N[C@H]1CCC[C@@H]1C(=O)N[C@H]1CCC[C@@H]1C(=O)N[C@H](CC(=O)N[C@H]1CCC[C@@H]1C(=O)N[C@H]1CCC[C@@H]1C(N)=O)Cc1ccc(O)cc1)NC(=O)[C@H]1CCC[C@@H]1NC(=O)[C@H]1CCC[C@@H]1N [H12 KY] | 138 µM | 227 µM |
| CC(C)C[C@@H](CC(=O)N[C@H]1CCC[C@@H]1C(=O)N[C@H]1CCC[C@@H]1C(=O)N[C@@H](C)CC(=O)N[C@H]1CCC[C@@H]1C(=O)N[C@H]1CCC[C@@H]1C(N)=O)NC(=O)[C@H]1CCC[C@@H]1NC(=O)[C@H]1CCC[C@@H]1N [H12 LA] | 293 µM | 438 µM |
| CC(C)C[C@@H](CC(=O)N[C@H]1CCC[C@@H]1C(=O)N[C@H]1CCC[C@@H]1C(=O)N[C@@H](CC(N)=O)CC(=O)N[C@H]1CCC[C@@H]1C(=O)N[C@H]1CCC[C@@H]1C(N)=O)NC(=O)[C@H]1CCC[C@@H]1NC(=O)[C@H]1CCC[C@@H]1N [H12 LN] | 264 µM | 423 µM |
| CC(C)C[C@@H](CC(=O)N[C@H]1CCC[C@@H]1C(=O)N[C@H]1CCC[C@@H]1C(=O)N[C@@H](CCC(N)=O)CC(=O)N[C@H]1CCC[C@@H]1C(=O)N[C@H]1CCC[C@@H]1C(N)=O)NC(=O)[C@H]1CCC[C@@H]1NC(=O)[C@H]1CCC[C@@H]1N [H12 LQ] | 348 µM | 446 µM |
| CSCC[C@@H](CC(=O)N[C@H]1CCC[C@@H]1C(=O)N[C@H]1CCC[C@@H]1C(=O)N[C@@H](C)CC(=O)N[C@H]1CCC[C@@H]1C(=O)N[C@H]1CCC[C@@H]1C(N)=O)NC(=O)[C@H]1CCC[C@@H]1NC(=O)[C@H]1CCC[C@@H]1N [H12 MA] | 224 µM | 194 µM |
| CSCC[C@@H](CC(=O)N[C@H]1CCC[C@@H]1C(=O)N[C@H]1CCC[C@@H]1C(=O)N[C@@H](CC(=O)O)CC(=O)N[C@H]1CCC[C@@H]1C(=O)N[C@H]1CCC[C@@H]1C(N)=O)NC(=O)[C@H]1CCC[C@@H]1NC(=O)[C@H]1CCC[C@@H]1N [H12 MD] | 471 µM | 169 µM |
| CSCC[C@@H](CC(=O)N[C@H]1CCC[C@@H]1C(=O)N[C@H]1CCC[C@@H]1C(=O)N[C@@H](CCC(=O)O)CC(=O)N[C@H]1CCC[C@@H]1C(=O)N[C@H]1CCC[C@@H]1C(N)=O)NC(=O)[C@H]1CCC[C@@H]1NC(=O)[C@H]1CCC[C@@H]1N [H12 ME] | 417 µM | 180 µM |
| CSCC[C@@H](CC(=O)N[C@H]1CCC[C@@H]1C(=O)N[C@H]1CCC[C@@H]1C(=O)N[C@@H](CCCCN)CC(=O)N[C@H]1CCC[C@@H]1C(=O)N[C@H]1CCC[C@@H]1C(N)=O)NC(=O)[C@H]1CCC[C@@H]1NC(=O)[C@H]1CCC[C@@H]1N [H12 MK] | 78 µM | 172 µM |
| CSCC[C@@H](CC(=O)N[C@H]1CCC[C@@H]1C(=O)N[C@H]1CCC[C@@H]1C(N)=O)NC(=O)[C@H]1CCC[C@@H]1NC(=O)[C@H]1CCC[C@@H]1NC(=O)C[C@H](CCSC)NC(=O)[C@H]1CCC[C@@H]1NC(=O)[C@H]1CCC[C@@H]1N [H12 MM] | 166 µM | 364 µM |
| CSCC[C@@H](CC(=O)N[C@H]1CCC[C@@H]1C(=O)N[C@H]1CCC[C@@H]1C(=O)N[C@@H](CC(N)=O)CC(=O)N[C@H]1CCC[C@@H]1C(=O)N[C@H]1CCC[C@@H]1C(N)=O)NC(=O)[C@H]1CCC[C@@H]1NC(=O)[C@H]1CCC[C@@H]1N [H12 MN] | 177 µM | 195 µM |
| CSCC[C@@H](CC(=O)N[C@H]1CCC[C@@H]1C(=O)N[C@H]1CCC[C@@H]1C(=O)N[C@@H](CCC(N)=O)CC(=O)N[C@H]1CCC[C@@H]1C(=O)N[C@H]1CCC[C@@H]1C(N)=O)NC(=O)[C@H]1CCC[C@@H]1NC(=O)[C@H]1CCC[C@@H]1N [H12 MQ] | 192 µM | 173 µM |
| CSCC[C@@H](CC(=O)N[C@H]1CCC[C@@H]1C(=O)N[C@H]1CCC[C@@H]1C(=O)N[C@@H](CO)CC(=O)N[C@H]1CCC[C@@H]1C(=O)N[C@H]1CCC[C@@H]1C(N)=O)NC(=O)[C@H]1CCC[C@@H]1NC(=O)[C@H]1CCC[C@@H]1N [H12 MS] | 215 µM | 224 µM |
| CSCC[C@@H](CC(=O)N[C@H]1CCC[C@@H]1C(=O)N[C@H]1CCC[C@@H]1C(=O)N[C@H](CC(=O)N[C@H]1CCC[C@@H]1C(=O)N[C@H]1CCC[C@@H]1C(N)=O)[C@@H](C)O)NC(=O)[C@H]1CCC[C@@H]1NC(=O)[C@H]1CCC[C@@H]1N [H12 MT] | 162 µM | 169 µM |
| N=C(N)NCCC[C@@H](CC(=O)N[C@H]1CCC[C@@H]1C(=O)N[C@H]1CCC[C@@H]1C(N)=O)NC(=O)[C@H]1CCC[C@@H]1NC(=O)[C@H]1CCC[C@@H]1NC(=O)C[C@H](CCC(N)=O)NC(=O)[C@H]1CCC[C@@H]1NC(=O)[C@H]1CCC[C@@H]1N [H12 QR] | 321 µM | 431 µM |
| C[C@@H](CC(=O)N[C@H]1CCC[C@@H]1C(=O)N[C@H]1CCC[C@@H]1C(N)=O)NC(=O)[C@H]1CCC[C@@H]1NC(=O)[C@H]1CCC[C@@H]1NC(=O)C[C@H](CCCNC(=N)N)NC(=O)[C@H]1CCC[C@@H]1NC(=O)[C@H]1CCC[C@@H]1N [H12 RA] | 205 µM | 485 µM |
| C[C@@H](O)[C@@H](CC(=O)N[C@H]1CCC[C@@H]1C(=O)N[C@H]1CCC[C@@H]1C(N)=O)NC(=O)[C@H]1CCC[C@@H]1NC(=O)[C@H]1CCC[C@@H]1NC(=O)C[C@H](CCCNC(=N)N)NC(=O)[C@H]1CCC[C@@H]1NC(=O)[C@H]1CCC[C@@H]1N [H12 RT] | 133 µM | 213 µM |
